The target in one data set is T1, h-FXIIa (Homo sapiens, UniProt P00748).
T1 construct: purchased Enzyme Research Laboratories FXIIa 1212A
T1 sequence (P00748 373-615 limits assumed): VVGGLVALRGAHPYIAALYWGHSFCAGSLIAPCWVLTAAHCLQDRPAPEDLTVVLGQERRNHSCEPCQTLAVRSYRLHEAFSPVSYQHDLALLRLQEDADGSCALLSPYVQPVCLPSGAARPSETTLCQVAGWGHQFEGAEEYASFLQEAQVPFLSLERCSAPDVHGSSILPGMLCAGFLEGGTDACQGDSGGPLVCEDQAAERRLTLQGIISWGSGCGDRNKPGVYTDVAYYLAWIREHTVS
T1 sequence (P00748 20-372 partner limits assumed): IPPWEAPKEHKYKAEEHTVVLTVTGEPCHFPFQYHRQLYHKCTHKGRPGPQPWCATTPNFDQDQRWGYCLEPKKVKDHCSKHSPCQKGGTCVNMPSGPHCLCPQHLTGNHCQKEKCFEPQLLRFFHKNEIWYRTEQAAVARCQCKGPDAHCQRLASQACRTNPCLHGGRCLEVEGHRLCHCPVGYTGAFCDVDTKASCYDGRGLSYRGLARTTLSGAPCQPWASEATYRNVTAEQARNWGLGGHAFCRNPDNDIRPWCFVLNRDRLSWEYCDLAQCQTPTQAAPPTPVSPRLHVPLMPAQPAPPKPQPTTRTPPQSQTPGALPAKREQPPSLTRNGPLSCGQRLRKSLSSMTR
Briefly: Stability of CTI, PTI and TICA at RT and at 95° C., read as inhibition of h-FXIIa. The class given is physicochemical. The following applies: for Residual activity / Calculated total I / Activity of FXIIa / Free FXIIa: inhibitor exposed 60 minutes to 95° C.; for Calculated total I / Activity of FXIIa / Free FXIIa: added CTI 8.1 nM, TICA1 306 nM; for Activity of FXIIa / Free FXIIa: total FXIIa 9.33 nM. As to the method:
Materials • S2302 From Chromogenic, lot # N0398718 SEQ0860, exp. date 2012-07. Water added on 7 Oct. […] On 3 Aug. […] Product code FXIIa 1212A, lot #FXIIa 2520PL. Bottle with 0.5 mg was reconstituted with 370 μl pure water. […] Buffer 4 mM NaAc, 150 mM NaCl (pH 5.3). Preparation was divided into 20 μl amounts and frozen at −80° C. • Hepes735 140 mM NaCl, 20 mM Hepes, 0.02% NaN3 (pH 7.35). • BSA5 Hepes735+5 mg/ml BSA. • CTI Prepared on 17 Dec. 2004, 0.141 mg/ml, i.e. 0.141/12028=11.7*10^−6 M (11.7 μM). One portion was thawed and divided into 3 parts. […]
Stock FXIIa was diluted 700× in BSA5. The inhibitor was diluted in BSA5 as indicated. Wells contained 70 μl diluted FXIIa (5 nM final), 70 μl inhibitor and 20 μl S2302 (475 or 462.5 μM final). The reaction was started after 5 min heating on the heating plate with S2302. Filters 405 nm and 490 nm reference. Found ΔmA/min was multiplied by 2.14 to get the figure for a 1 cm path.
The residual activity (V) was fitted against the inhibitor concentration with equation:
V=(E+(sqrt(Ê2+2*E*(Ki−I)+Î2+2*I*Ki+Kî2)−E−I−Ki)/2)*kcat*S/(Km+S)
in which E=[FXIIa], Ki is the dissociation constant, I=[Inhibitor], kcat and Km are Michaelis constants and S=[S2302].
To calculate the concentration of I the equation I=x·(x−E−Ki)/(x−E) was used. In this equation is I the calculated inhibitor concentration, x=the residual activity of FXIIa (free FXIIa), E the total FXIIa concentration (=9.33 nM), and Ki the dissociation or inhibitor constant.

For another data set, the system named is contact activation. Briefly: Thrombin generation (CAT) in platelet poor plasma contact activated with kaolin. It is filed as biochemical, human. Conditions: for 4 × lag-time (ng/ml) / 4 × lag-time (μM): concentration that prolongs clotting time of kaolin contact activated plasma four times. As to the method:
Thrombin generation was carried out according to WO2003/093831.
Following a double centrifugation at 2500×g for 15 min at room temperature, platelet poor plasma (PPP) was collected from the upper half volume of plasma supernatant, quick frozen and stored at −80° C. The absence of platelet and leucocyte in PPP was checked with an ADVIA 120 counter (Bayer Diagnostics, NY, USA).
Recombinant human tissue factor Innovin® was obtained from Dade Behring (Marburg, Germany) and used at a final concentration of 0.5 pM in PRP and 1 or 5 pM in PPP samples. The phospholipid vesicles used at a final concentration of […] were obtained from Avanti Polar Lipids (Alabaster, Ala., USA) and consisted of 20 mol % phosphatidylserine (PS), 20 mol % phosphatidylethanolamine (PE) and 60 mol % phosphatidylcholine (PC) and were prepared by extrusion method (9,10). Kaolin light (hydrated aluminium silicate) was obtained from Baker Harrison ltd, (Ilford, UK).
Hepes-buffered saline contained 20 mM Hepes (Sigma Aldrich, l'Ile d'Abeau Chesnes, France), 140 mM NaCl and 5 mg/mL bovine serum albumin (BSA) (Euromedex, Souffelweyersheim, France), pH 7.35. This buffer was stored at −20° C. until use. A fresh mixture of fluorogenic substrate and CaCl2 was prepared before each experiment. Fluorogenic substrate, Z-Gly-Gly-Arg-AMC, was obtained from Bachem (Bubendorf, Switzerland). The mixture of fluorogenic substrate 2.5 mM and CaCl2 0.1 M was prepared using buffer containing Hepes 20 mM and 60 mg/mL BSA, pH 7.35. The Calibrator with the activity of 600 nM human thrombin was obtained from Thrombinoscope BV (Maastricht, The Netherlands). Transparent, round bottom Greiner microtiter plates (Greiner ref 65204, Poitiers, France) were used.
Thrombin generation was measured using Calibrated Automated Thrombography (CAT) according to the methodology of WO2003/093831 and a 96-well plate fluorometer (Fluoroscan Ascent Reader, Thermolab systems OY, Helsinki, Finland) equipped with a 390/460 nm filter set. Briefly, 80 μL of plasma is dispensed into the wells of round-bottom 96 well-microtiter plates. 20 μL of a mixture containing tissue factor and phospholipids is added to the PPP sample; alternatively, in order to obtain contact activation, the citrated plasma is preincubated for at least 10 min with 1 mg/ml of Kaolin light. The starting reagent (20 μL per well) contains fluorogenic substrate and CaCl2. […] The most important parameters that can be derived from CAT are lag time, endogenous thrombin potential corresponding to the area under the CAT curve, peak height of thrombin and time to peak.

Data set [1] is described as follows: Retention of biological activity at room temperature and in boiling water. Conditions: for biological activity after heating: 0.1 mM solution in closed ampoule in boiling water for 60 min. It is filed as physicochemical. As for the experimental part:
(Example 7) This means that, unlike CTI, it can be added to citrate tubes that can be sterilized and used under clinical conditions. About 0.10 mg of TICA1 would be required per vacuum tube meant to take 10 ml of blood.

[2] abbreviates: contact activation of PPP by kaolin.
[3] abbreviates: Kaolin, CTI 0.72 μM (8.64 μg/ml).

One may read the Ki as a dissociation constant, usually derived from enzyme kinetics or from competition with a known ligand. A lower Ki goes with a stronger hold on the target. For the molecule `CC[C@H](C)[C@@H]1NC(=O)[C@H](CCCNC(=N)N)NC(=O)[C@@H]2CCCN2C(=O)[C@@H](NC(=O)[C@@H](NC(=O)[C@@H](N)CCCNC(=N)N)C(C)C)CSSC[C@@H]2NC(=O)[C@H](CCC(=O)O)NC(=O)[C@H](C)NC(=O)[C@H](CC(C)C)NC(=O)[C@@H]3CSSC[C@@H](C(=O)NCC(=O)O)NC(=O)[C@H](Cc4ccc(O)cc4)NC(=O)CNC(=O)[C@H](Cc4c[nH]cn4)NC(=O)[C@H](CCC(=O)O)NC(=O)[C@H](CC(C)C)NC(=O)[C@H](CSSC[C@H](NC(=O)[C@H](CCCCN)NC(=O)[C@H](CCSC)NC(=O)[C@H](CC(C)C)NC1=O)C(=O)N[C@@H](CCCCN)C(=O)N[C@@H](CCCCN)C(=O)N[C@@H](CC(=O)O)C(=O)N[C@@H](CO)C(=O)N[C@@H](CC(=O)O)C(=O)N3)NC(=O)[C@H](C(C)C)NC2=O` [TICA1], affinity at h-FXIIa ((Ki) (nM), inhibitor 30 min 95° C., h-FXIIa 5.01 nM) was put at a Ki of 24 nM. The “Res. Act. (%)” value at h-FXIIa (inhibitor 30 min 95° C.) came to 94%. The “Res. Act. (%)” value at h-FXIIa (inhibitor at RT during 72 hrs) turned out to be 102%. At h-FXIIa, the Residual activity turned out to be 81.7%, the “Calculated total I” value is given as 250 nM, the “Activity of FXIIa” value is 33.5 ± 1.78 mA/min and the “Free FXIIa” value is on record as 3.93 nM. Besides, the “Res. Act. (%)” value at h-FXIIa (inhibitor kept at −80° C.) turned out to be 100%. Moreover, the “effect on lag time of thrombin generation triggered by contact activation” value with contact activation (FIG. 1) is “prolong the lag time”. Further, the “inhibition of contact activation of PPP” value in the data set with contact activation (PPP incubated with kaolin, 0.94 to 4.6 μM) was “dose-dependent inhibition”. In the data set on contact activation (After heating), the “4 × lag-time (ng/ml)” value was found to be 7.5 ng/mL and the “4 × lag-time (μM)” value was 2.3 µM. In the data set with contact activation (Before heating), the “4 × lag-time (ng/ml)” value was 7.8 ng/mL and the “4 × lag-time (μM)” value came to 2.4 µM. In the data set with contact activation (setting [2]), the “potency compared with CTI on a molar basis” value is reported as around 2.5 times less potent and the “potency compared with CTI on a weight basis” value is reported as “equipotent”. Also, the “biological activity after heating” value in data set [1] is “does not affect its biological activity”. Also, in data set [1] (left for weeks at room temperature), the “stability at room temperature” value is “without loosing activity”.

B1: Corn trypsin inhibitor (other, UniProt P01088 29-138, looked up)
chain: SAGTSCVPGWAIPHNPLPSCRWYVTSRTCGIGPRLPWPELKRRCCRELADIPAYCRCTALSILMDGAIPPGPDAQLEGRLEDLPGCPREVQRGFAATLVTEAECNLATIS
notes: also called CTI
On to B1, for which, in the data set with h-FXIIa, the Residual activity was 29.3%, the “Calculated total I” value is listed as 2.37 nM, the “Activity of FXIIa” value is 66.3 ± 1.32 mA/min and the “Free FXIIa” value stood at 7.77 nM. In the data set with contact activation (setting [3]), this molecule came in with an ETP of 1116, a Lag-time of 18.62, a Peak of 385 and a ttPeak of 20.06. Moreover, the “biological activity after heating” value in data set [1] is recorded as “significantly inactivated”.

These data come from patent publication US20140296146A1, “Thermostable Inhibitors of Activation of the Blood Clotting System Through Contact with Foreign Surfaces” (Synapse B.V., priority 2011, published 2014).
